Laboratory results reported in article PMC4213485, “Relevant and selective activity of Pancratium illyricum L. against Candida albicans clinical isolates: a combined effect on yeast growth and virulence” (BMC Complementary and Alternative Medicine, 2014).

Target: T1, Clostridium hystolyticum collagenase (EC.3.4.23.3)
T1 construct: gene colH
Assay: FALGPA hydrolysis, absorbance at […] nm
Type: biochemical, Hathewaya histolytica
Details: FALGPA substrate (2 mM stock), 50 mM Tricine, 10 mM CaCl2, 400 mM NaCl, pH 7.5, 15 min preincubation

Work on O=C(O[C@@H]1Cc2c(O)cc(O)cc2O[C@@H]1c1cc(O)c(O)c(O)c1)c1cc(O)c(O)c(O)c1 [EGCG] yielded an IC50 of 9.45 ± 0.5 µM.
